PubChem BioAssay AID248 (DTP/NCI, 2004)
Toxic doses and inconclusive results are not listed. Rule as the data show it: active = T/C of 150% or more; inactive = T/C below 125%. Peptide text beside a SMILES is read from it. * marks the point of attachment. Cbz = O=C(OCc1ccccc1)*

Tested on: L1210 leukemia ip in BDF1 mice, survival T/C
Experiment: NCI In Vivo Anticancer Drug Screen. Data for tumor model L1210 Leukemia (intraperitoneal) in B6D2F1 (BDF1) mice
Details: endpoint: mean survival time, higher = longer survival
In short: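 Read-out is survival time, reported as the treated-group measurement over the vehicle-control measurement.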

[1] = dose: 100.0 mg/kg/injection, schedule: Q01DX009 (ip), vehicle: saline with Tween-80
[2] = dose: 200.0 mg/kg/injection, schedule: Q01DX009 (ip), vehicle: saline with Tween-80
[3] = dose: 100.0 mg/kg/injection, schedule: Q01DX001 (ip), vehicle: saline
[4] = dose: 200.0 mg/kg/injection, schedule: Q01DX001 (ip), vehicle: saline
[5] = dose: 100.0 mg/kg/injection, schedule: Q01DX009 (ip), vehicle: Klucel (hydroxypropylcellulose) (HPC)
[6] = dose: 200.0 mg/kg/injection, schedule: Q01DX009 (ip), vehicle: Klucel (hydroxypropylcellulose) (HPC)
[7] = dose: 100.0 mg/kg/injection, schedule: Q04DX003 (ip), vehicle: Klucel (hydroxypropylcellulose) (HPC)
[8] = dose: 200.0 mg/kg/injection, schedule: Q04DX003 (ip), vehicle: Klucel (hydroxypropylcellulose) (HPC)
[9] = dose: 400.0 mg/kg/injection, schedule: Q04DX003 (ip), vehicle: Klucel (hydroxypropylcellulose) (HPC)
[10] = dose: 100.0 mg/kg/injection, schedule: Q01DX001 (ip), vehicle: Klucel (hydroxypropylcellulose) (HPC)
[11] = dose: 200.0 mg/kg/injection, schedule: Q01DX001 (ip), vehicle: Klucel (hydroxypropylcellulose) (HPC)
[12] = dose: 400.0 mg/kg/injection, schedule: Q01DX001 (ip), vehicle: Klucel (hydroxypropylcellulose) (HPC)

Measured: T/C

CCOC(=O)N(Cl)Cl
inactive: dose: 3.13 mg/kg/injection, schedule: Q04DX003 (ip), vehicle: saline 105 % of control | dose: 6.25 mg/kg/injection, schedule: Q04DX003 (ip), vehicle: saline 98 % of control | dose: 12.5 mg/kg/injection, schedule: Q04DX003 (ip), vehicle: saline 98 % of control

CSc1ccc(NC(=O)NCCCCCCNC(=O)Nc2ccc(SC)cc2)cc1
inactive: dose: 50.0 mg/kg/injection, schedule: Q01DX009 (ip), vehicle: saline with Tween-80 93 % of control | [1] 96 % of control | [2] 90 % of control

N#CCC(N)C(=O)O (centres undefined)
inactive: dose: 50.0 mg/kg/injection, schedule: Q01DX001 (ip), vehicle: saline 90 % of control | [3] 96 % of control | [4] 96 % of control

CNC(=O)Cc1ccc2cc(OC)c(OC)cc2c1
inactive: dose: 100.0 mg/kg/injection, schedule: Q04DX003 (ip), vehicle: saline with Tween-80 95 % of control | dose: 200.0 mg/kg/injection, schedule: Q04DX003 (ip), vehicle: saline with Tween-80 101 % of control | dose: 400.0 mg/kg/injection, schedule: Q04DX003 (ip), vehicle: saline with Tween-80 91 % of control

CNC(=O)Nc1c(O)nc(N)[nH]c1=O
inactive: dose: 37.5 mg/kg/injection, schedule: Q01DX001 (ip), vehicle: saline 97 % of control | dose: 75.0 mg/kg/injection, schedule: Q01DX001 (ip), vehicle: saline 103 % of control | dose: 150.0 mg/kg/injection, schedule: Q01DX001 (ip), vehicle: saline 105 % of control

C/C(=N\NC(N)=S)C(O)c1ccccc1 (centres undefined)
inactive: dose: 5.0 mg/kg/injection, schedule: Q01DX001 (ip), vehicle: other 105 % of control | dose: 10.0 mg/kg/injection, schedule: Q01DX001 (ip), vehicle: other 100 % of control | dose: 20.0 mg/kg/injection, schedule: Q01DX001 (ip), vehicle: other 105 % of control | dose: 40.0 mg/kg/injection, schedule: Q01DX001 (ip), vehicle: other 100 % of control | dose: 80.0 mg/kg/injection, schedule: Q01DX001 (ip), vehicle: other 105 % of control

O=C1/C(=C2\CCc3ccccc32)Cc2ccccc21
inactive: dose: 12.5 mg/kg/injection, schedule: Q04DX002 (ip), vehicle: saline 99 % of control | dose: 25.0 mg/kg/injection, schedule: Q04DX002 (ip), vehicle: saline 96 % of control | dose: 50.0 mg/kg/injection, schedule: Q04DX002 (ip), vehicle: saline 96 % of control

CCN(CC)CCCC(C)Nc1cc(N)nc2nc(-c3ccc(Cl)cc3)c(-c3ccc(Cl)cc3)nc12 (centres undefined)
inactive: dose: 37.5 mg/kg/injection, schedule: Q01DX009 (ip), vehicle: Klucel (hydroxypropylcellulose) (HPC) 95 % of control | dose: 37.5 mg/kg/injection, schedule: Q04DX003 (ip), vehicle: Klucel (hydroxypropylcellulose) (HPC) 98 % of control | dose: 75.0 mg/kg/injection, schedule: Q01DX001 (ip), vehicle: other 97 % of control | dose: 75.0 mg/kg/injection, schedule: Q01DX009 (ip), vehicle: Klucel (hydroxypropylcellulose) (HPC) 90 % of control | dose: 75.0 mg/kg/injection, schedule: Q04DX003 (ip), vehicle: Klucel (hydroxypropylcellulose) (HPC) 102 % of control | dose: 150.0 mg/kg/injection, schedule: Q04DX003 (ip), vehicle: Klucel (hydroxypropylcellulose) (HPC) 93 % of control

O=C(O)c1ccccc1-c1ccc([N+](=O)[O-])cc1Cl
inactive: dose: 177.0 mg/kg/injection, schedule: Q01DX001 (ip), vehicle: carboxymethylcellulose (CMC) 106 % of control | dose: 266.0 mg/kg/injection, schedule: Q01DX001 (ip), vehicle: carboxymethylcellulose (CMC) 98 % of control | dose: 400.0 mg/kg/injection, schedule: Q01DX001 (ip), vehicle: carboxymethylcellulose (CMC) 104 % of control

CC(=O)Nc1cccc(OCCCOc2cccc(C(=N)N)c2)c1
inactive: dose: 50.0 mg/kg/injection, schedule: Q01DX009 (ip), vehicle: Klucel (hydroxypropylcellulose) (HPC) 103 % of control | [5] 100 % of control | [6] 94 % of control

CCC/C(=N\Nc1ccc([N+](=O)[O-])cc1[N+](=O)[O-])c1cccc([N+](=O)[O-])c1
inactive: [7] 93 % of control | [8] 92 % of control | [9] 97 % of control

CCN(CC)CCC(CC=C(C)C)(C(N)=O)c1cccc2ccccc12 (centres undefined)
inactive: dose: 5.0 mg/kg/injection, schedule: Q04DX003 (ip), vehicle: saline with Tween-80 98 % of control | dose: 10.0 mg/kg/injection, schedule: Q04DX003 (ip), vehicle: saline with Tween-80 100 % of control | dose: 20.0 mg/kg/injection, schedule: Q04DX003 (ip), vehicle: saline with Tween-80 109 % of control

O=CNc1ccc(O)cc1
inactive: [1] 104 % of control | [2] 108 % of control | dose: 400.0 mg/kg/injection, schedule: Q01DX009 (ip), vehicle: saline with Tween-80 114 % of control

Cc1cc(=O)[nH]c2nc3ccccc3n12
inactive: [10] 108 % of control | [7] 96 % of control | [11] 95 % of control | [8] 96 % of control | [12] 111 % of control | [9] 104 % of control

CC(C)C(NC(=O)C1CCCN1C(=O)OCc1ccccc1)C(=O)O (stereo not drawn) (Cbz-Pro-Val-OH; configuration not given here)
inactive: dose: 100.0 mg/kg/injection, schedule: Q01DX009 (ip), vehicle: saline sonified 102 % of control | dose: 100.0 mg/kg/injection, schedule: Q04DX003 (ip), vehicle: saline sonified 97 % of control | dose: 200.0 mg/kg/injection, schedule: Q01DX009 (ip), vehicle: saline sonified 92 % of control | dose: 200.0 mg/kg/injection, schedule: Q04DX003 (ip), vehicle: saline sonified 96 % of control | dose: 400.0 mg/kg/injection, schedule: Q01DX009 (ip), vehicle: saline sonified 97 % of control | dose: 400.0 mg/kg/injection, schedule: Q04DX003 (ip), vehicle: saline sonified 97 % of control

O=c1cc(CO)oc(C(Nc2ccccc2)c2ccccc2)c1O (centres undefined)
inactive: [3] 91 % of control | [4] 97 % of control | dose: 400.0 mg/kg/injection, schedule: Q01DX001 (ip), vehicle: saline 95 % of control

COc1ccc(C(Br)C(Br)C(=O)c2ccc3c(c2)OCO3)cc1OC (centres undefined)
inactive: dose: 100.0 mg/kg/injection, schedule: Q04DX003 (ip), vehicle: saline 92 % of control | dose: 200.0 mg/kg/injection, schedule: Q04DX003 (ip), vehicle: saline 89 % of control | dose: 400.0 mg/kg/injection, schedule: Q04DX003 (ip), vehicle: saline 98 % of control

O=N/N=c1/sc2ccccc2n1-c1ccccc1
inactive: [10] 103 % of control | [11] 94 % of control | [12] 100 % of control

On1ccc(N2CCOCC2)cc1=NC1CCCCC1
inactive: dose: 5.0 mg/kg/injection, schedule: Q01DX001 (ip), vehicle: saline 95 % of control | dose: 10.0 mg/kg/injection, schedule: Q01DX001 (ip), vehicle: saline 97 % of control | dose: 20.0 mg/kg/injection, schedule: Q01DX001 (ip), vehicle: saline 90 % of control | dose: 40.0 mg/kg/injection, schedule: Q01DX001 (ip), vehicle: saline 98 % of control | dose: 80.0 mg/kg/injection, schedule: Q01DX001 (ip), vehicle: saline 101 % of control | [3] 103 % of control

COc1cccc2c1C(=O)c1c(O)c3c(c(O)c1C2=O)C[C@@](O)(/C(C)=N\O)C[C@@H]3OC1CC(N)C(O)C(C)O1 (some centres undefined)
inactive: dose: 1.0 mg/kg/injection, schedule: Q04DX003 (ip), vehicle: water 106 % of control | dose: 2.0 mg/kg/injection, schedule: Q04DX003 (ip), vehicle: water 115 % of control | dose: 4.0 mg/kg/injection, schedule: Q04DX003 (ip), vehicle: water 113 % of control

CCOc1ccc(OC/C=C(\C)CC/C=C(/C)CC)cc1
inactive: dose: 100.0 mg/kg/injection, schedule: Q04DX002 (ip), vehicle: saline with Tween-80 96 % of control | dose: 200.0 mg/kg/injection, schedule: Q04DX002 (ip), vehicle: saline with Tween-80 99 % of control | dose: 400.0 mg/kg/injection, schedule: Q04DX002 (ip), vehicle: saline with Tween-80 108 % of control

Cc1[nH]c2ccccc2c1C
inactive: [5] 104 % of control | [6] 87 % of control
